Experimental findings from patent publication US7683073B2, “Isoquinoline-1,3,4-trione compounds, the synthetic method and the use thereof” (Shanghai Institute of Materia Medica, Chinese Academy of …, priority 2005, dated 2010) are described below.

For data set [1], the system named is PC12 cells. The data set is described as follows: Morphological comparison of PC12 cells treated with Aβ and caspase-3 inhibitors. The note with it: inhibitor alone; 28 μM chen-1, 200 nM Ac-Asp-Glu-Val-Asp-aldehyde; phase contrast microscope, 72 hours. How it is done: Culture of cells: PC 12 cells were obtained from XiCan Tang of Institute of Material Medica, CAS. Media were DMEM(HG) containing 10% calf serum. PC12 were incubated in an incubator with constant temperature with 5% carbon dioxide at 37° C. The cells were inoculated in Petri dishes and 96-well plates in the amount […], the compounds of the present invention were added into after 12 hours, and […] of apoptosis inducer, Aβ25-35, was added after 24 hours.

Data set [2] deals with PC12 cells. The data set is described as follows: Flow cytometry detection of apoptotic PC12 cells (propidium iodide, sub-G1). The data set is classed as cell-based. As to the method:
Media were DMEM(HG) containing 10% calf serum.
2×10^6 cells were collected at different time respectively after PC12 were treated in the same method. Cell precipitation was washed twice with PBR, followed by adding ice ethanol, and the resulting solution was blown to disperse the cells into single, fixed for 2 hours at 4° C. Before staining, the solution was centrifuged at 300 rpm for 10 minutes, and the supernatant was discarded, then the precipitation was washed twice with PBR to remove ethanol substantially. Into the cell precipitation was added a staining solution (containing 0.1% TritonX-100, 0.1 mM EDTApH7.4, 0.01 mg/ml RNase A, 50 μg/ml propidium iodide). Cell fluorescence was detected with flow cytometry after the cells in staining solution for 30 minutes at 4° C. away from light, and percentage and cycle of apoptotic cells were calculated by analyzing DNA content. The results were obtained by flow cytometry laboratory of Institute of Biochemistry and Cell Biology, CAS.
As illustrated from the above results, it may be seen that caspase-3 inhibitors could protect PC12 markedly and resist apoptosis of PC12 mediated by neurotoxicity of Aβ of Aβ25-35, and they have no toxicity in low concentration themselves.
On the technique in general: A flow cytometer gives signals particle by particle.

Where [3] appears, read: Aβ25-35 and inhibitor (2 μM Ac-DEVD-CHO, 28 μM Chen-1) in the medium at the same time.
Where [4] appears, read: only caspase-3 inhibitor added, no Aβ25-35, after 72 hours.

Consider `CC(=O)N[C@@H](CC(=O)O)C(=O)N[C@@H](CCC(=O)O)C(=O)N[C@H](C(=O)N[C@H](C=O)CC(=O)O)C(C)C` [Ac-DEVD-CHO, Ac-Asp-Glu-Val-Asp-aldehyde], for which the “toxic effect on PC12 cells (morphology)” value in the data set on PC12 cells [1] is “no toxic effect”. Further, the “percentage of apoptotic cells” value was found to be 4.01% with PC12 cells [2] (setting [3]) and 2.27% in the data set on PC12 cells [2] (setting [4]).
Take `O=C1NC(=O)c2ccccc2C1=O` [Chen-1]: in the data set with PC12 cells [1], the “toxic effect on PC12 cells (morphology)” value is listed as “no toxic effect”. In addition, the “percentage of apoptotic cells” value in the data set with PC12 cells [2] (setting [3]) is recorded as 4.09%; in the data set with PC12 cells [2] (setting [4]), 2.15%.
